Key:
Format in all cases: in vivo
[1] = test system: Setaria faberi (SETFA); assay: Post-emergence biological efficacy, glasshouse, 500 or 1000 g/ha, evaluated after 13 days (100=total damage to plant; 0=no damage to plant); details: Setaria faberi, 312 h, rate 1,000 g/ha, read-out: Percentage damage caused to weed species, post-emergence, SETFA
Experimental: (§1) Seeds of Alopecurus myosuroides (ALOMY), Setaria faberi (SETFA), Echinochloa […]), Solanum nigrum (SOLNI), Amaranthus retroflexus (AMARE) and Ipomoea hederaceae (IPOHE) were sown in standard soil in pots. […] The test plants were then grown on under controlled conditions in a glasshouse (at 24/16° C., day/night; 14 hours light; 65% humidity) and watered twice daily. […]

[2] = test system: Echinochloa crusgaffi (ECHCG); assay: as above; details: Echinochloa, 312 h, rate 1,000 g/ha, read-out: Percentage damage caused to weed species, post-emergence, ECHCG
Experimental: as §1

[3] = test system: Amaranthus retroflexus (AMARE); assay: as above; details: Amaranthus retroflexus, 312 h, rate 1,000 g/ha, read-out: Percentage damage caused to weed species, post-emergence, AMARE
Experimental: as §1

[4] = test system: Alopecurus myosuroides (ALOMY); assay: as above; details: Alopecurus myosuroides, 312 h, rate 1,000 g/ha, read-out: Percentage damage caused to weed species, post-emergence, ALOMY
Experimental: as §1

[5] = test system: Ipomoea hederaceae (IPOHE); assay: as above; details: Ipomoea, 312 h, rate 1,000 g/ha, read-out: Percentage damage caused to weed species, post-emergence, IPOHE
Experimental: as §1

[6] = test system: Solanum nigrum (SOLNI); assay: as above; details: Solanum nigrum, 312 h, rate 1,000 g/ha, read-out: Percentage damage caused to weed species, post-emergence, SOLNI
Experimental: as §1

[7] = test system: Setaria faberi (SETFA); assay: Pre-emergence biological efficacy, glasshouse, 1000 g/ha, evaluated after 13 days (100=total damage to plant; 0=no damage to plant); details: Setaria faberi, 312 h, rate 1,000 g/ha, read-out: Percentage damage caused to weed species, pre-emergence, SETFA
Experimental: (§2) Seeds of Alopecurus myosuroides (ALOMY), Setaria faberi (SETFA), Echinochloa crus-galli (ECHCG), Solanum nigrum (SOLNI), Amaranthus retroflexus (AMARE) and Ipomoea hederaceae (IPOHE) were sown in standard soil in pots. […] The test plants were then grown under controlled conditions in the glasshouse (at 24/16° C., day/night; 14 hours light; 65% humidity) and watered twice daily. […]

[8] = test system: Amaranthus retroflexus (AMARE); assay: as above; details: Amaranthus retroflexus, 312 h, rate 1,000 g/ha, read-out: Percentage damage caused to weed species, pre-emergence, AMARE
Experimental: as §2

[9] = test system: Echinochloa crus-galli (ECHCG); assay: as above; details: Echinochloa crus-galli, 312 h, rate 1,000 g/ha, read-out: Percentage damage caused to weed species, pre-emergence, ECHCG
Experimental: as §2

[10] = test system: Alopecurus myosuroides (ALOMY); assay: as above; details: Alopecurus myosuroides, 312 h, rate 1,000 g/ha, read-out: Percentage damage caused to weed species, pre-emergence, ALOMY
Experimental: as §2

[11] = test system: Ipomoea hederaceae (IPOHE); assay: as above; details: Ipomoea, 312 h, rate 1,000 g/ha, read-out: Percentage damage caused to weed species, pre-emergence, IPOHE
Experimental: as §2

[12] = test system: Solanum nigrum (SOLNI); assay: as above; details: Solanum nigrum, 312 h, rate 1,000 g/ha, read-out: Percentage damage caused to weed species, pre-emergence, SOLNI
Experimental: as §2

SMILES | pest or weed control at 1000 g/ha [1] [%] | pest or weed control at 1000 g/ha [2] [%] | pest or weed control at 1000 g/ha [3] [%] | pest or weed control at 1000 g/ha [4] [%] | pest or weed control at 1000 g/ha [5] [%] | pest or weed control at 1000 g/ha [6] [%] | pest or weed control at 1000 g/ha [7] [%] | pest or weed control at 1000 g/ha [8] [%] | pest or weed control at 1000 g/ha [9] [%] | pest or weed control at 1000 g/ha [10] [%] | pest or weed control at 1000 g/ha [11] [%] | pest or weed control at 1000 g/ha [12] [%]
CCCCOCC(C)OC(=O)c1nc(-c2ccc(Cl)c(OC)c2F)cc2[nH]cc(C)c12 (stereo not drawn) [Compound 22-84, 4-[(1-n-Butoxy)-prop-2-yloxycarbonyl]-6-(4-chloro-2-fluoro-3-methoxyphenyl)-3-methyl-1H-pyrrolo[3,2-c]pyridine] | 30 | 20 | 80 | 20 | 40 | 90 | 10 | 40 | 20 | 20 | 80 | 70
Cc1cc2c(C(=O)O)nc(-c3ccc(Cl)c(F)c3)nc2n1Cc1ccco1 [Compound 11-21, 4-Carboxy-2-(4-chloro-3-fluorophenyl)-7-(2-furanyl-methyl)-6-methyl-7H-pyrrolo[2,3-d]pyrimidine] | 0 | 0 | 0 | 0 | 20 | 50 | 0 | 0 | 0 | 0 | 0 | 0
Cc1cc2c(C(=O)O)nc(C3CC3)nc2n1Cc1ccccc1[N+](=O)[O-] [Compound 8-5, 4-Carboxy-2-cyclopropyl-6-methyl-7-(2-nitrophenyl-methyl)-7H-pyrrolo[2,3-d]pyrimidine] | 0 | 0 | 0 | 0 | 0 | 0 | 0 | 0 | 0 | 0 | 0 | 0
O=C(O)c1nc(-c2ccc(Cl)c(F)c2)nc2c1ccn2Cc1ccccc1[N+](=O)[O-] [Compound 8-17, 4-Carboxy-2-(4-chloro-3-fluorophenyl)-7-(2-nitropheny-methyl)-7H-pyrrolo[2,3-d]pyrimidine] | 0 | 0 | 20 | 0 | 50 | 50 | 0 | 0 | 0 | 0 | 0 | 0
COC(=O)c1nc(-c2ccc(Cl)c(OC)c2F)nc2c1c(C)cn2C(=O)OC [Compound 17-64, 2-(4-Chloro-2-fluoro-3-methoxyphenyl)-4,7-di(methoxycarbonyl)-5-methyl-7H-pyrrolo[2,3-d]pyrimidine] | 0 | 0 | 0 | 0 | 0 | 20 | 0 | 0 | 0 | 0 | 0 | 0
COc1c(Cl)ccc(-c2cc3[nH]cc(C)c3c(C(=O)OC(C)C)n2)c1F [Compound 22-78, 6-(4-Chloro-2-fluoro-3-methoxyphenyl)-4-isopropoxycarbonyl-3-methyl-1H-pyrrolo[3,2-c]pyridne] | 0 | 0 | 0 | 0 | 70 | 60 | 0 | 20 | 0 | 0 | 0 | 10
COc1c(Cl)ccc(-c2nc(C(=O)O)c3c(n2)N(C)CCN3C)c1F [Compound 92-163, 4-Carboxy-2-(4-chloro-2-fluoro-3-methoxyphenyl)-5,8-dimethyl-5,6,7,8-tetrahydropteridine] | 10 | 10 | 0 | 10 | 10 | 10 | 0 | 0 | 0 | 0 | 0 | 0
COc1c(Cl)ccc(-c2nc(C(=O)O)c3c(C)cn(Cc4ccccc4)c3n2)c1F [Compound 6-63, 7-Benzyl-4-carboxy-2-(4-chloro-2-fluoro-3-methoxyphenyl)-5-methyl-7H-pyrrolo[2,3-d]pyrimidine] | 50 | 40 | 80 | 10 | 60 | 70 | 0 | 0 | 0 | 0 | 0 | 0
COC(=O)c1nc(C2CC2)nc2c1ccn2Cc1ccccc1[N+](=O)[O-] [Compound 8-2, 2-Cyclopropyl-4-methoxycarbonyl-7-(2-nitrophenyl-methyl)-7H-pyrrolo[2,3-d]pyrimidine] | 0 | 0 | 0 | 0 | 20 | 20 | 0 | 0 | 0 | 0 | 0 | 0
COC(=O)c1nc(-c2ccc(Cl)c(OC)c2F)nc2c1N(Cc1ccc(OC)cc1OC)C(C)N2Cc1ccc(OC)cc1OC (stereo not drawn) [Compound 83-48, 2-(4-Chloro-2-fluoro-3-methoxyphenyl)-7,9-bis(2,4-dimethoxyphenyl-methyl)-6-methoxycarbonyl-8-methyl-8,9-dihydro-7H-purine] | 20 | 20 | 0 | 20 | 10 | 20 | 0 | 0 | 0 | 0 | 0 | 0

Reference: patent US20120202690A1, “HERBICIDAL COMPOUNDS” (SYNGENTA LIMITED, priority 2009, published 2012)
